Measurements as given in patent US9969694B2, “N-(arylalkyl)-N′-pyrazolyl-urea, thiourea, guanidine and cyanoguanidine compounds as TrkA kinase inhibitors” (Array BioPharma Inc., priority 2012, dated 2018).

The molecules below were run against T1, His-tagged recombinant human TrkA (Homo sapiens, UniProt P04629) (assay: TrkA Kinase Binding Assay (LanthaScreen Eu)). Settings: averaged IC50; TR-FRET binding, 60 min, 22° C.; read-out: TrkA Enzyme IC50.
T1 construct: 6HIS tagged cytoplasmic domain from Invitrogen, Catalog No. PV3144; purchased Invitrogen PV3144
T1 sequence (P04629 440-796 limits assumed): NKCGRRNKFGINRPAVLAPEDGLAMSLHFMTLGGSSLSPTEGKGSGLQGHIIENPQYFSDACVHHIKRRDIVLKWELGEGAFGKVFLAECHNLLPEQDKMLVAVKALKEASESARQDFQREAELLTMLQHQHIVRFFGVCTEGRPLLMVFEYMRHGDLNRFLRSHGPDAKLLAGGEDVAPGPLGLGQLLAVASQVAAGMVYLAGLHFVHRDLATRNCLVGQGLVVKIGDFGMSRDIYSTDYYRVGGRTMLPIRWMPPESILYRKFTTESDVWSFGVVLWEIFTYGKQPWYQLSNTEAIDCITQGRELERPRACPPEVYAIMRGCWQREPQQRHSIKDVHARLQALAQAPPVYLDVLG
Protocol: TrkA binding activity was determined in a TrkA LanthaScreen™ Eu Kinase Binding Assay. 5 nM His-tagged recombinant human TrkA (6HIS tagged cytoplasmic domain from Invitrogen, Catalog No. PV3144) was incubated with 4 nM Alexa-Fluor® Tracer 236 (Invitrogen Cat. No. PV5592), 2 nM biotinylated anti-His (Invitrogen Cat. No. PV6090), and 2 nM europium-labeled Streptavidin (Invitrogen Cat. No. PV5899), in buffer (25 mM MOPS, pH 7.5, 5 mM MgCl2, 0.005% Triton X-100). Three fold serial dilutions of compounds of the invention in DMSO were added to a final percentage of 2% DMSO. After 60-minute incubation at 22° C., the reaction was measured using the EnVision mutlimode plate reader (PerkinElmer) via TR-FRET dual wavelength detection at […]. The percent of control was calculated using a ratiometric emission factor. The IC50 values were determined by fitting a four parameter model to the percent of control data.
Table A provides averaged IC50 values for compounds of the invention when tested in the assay of Example A, where A represents an averaged IC50 value <100 nM; B represents an averaged IC50 value from 100 to 1,000 nM; and C represents an average 1050 value above 1000 nM.

Molecule	IC50
COCc1ccc(OC(F)(F)F)c(CNC(=O)Nc2c(C)c(-c3cnn(C)c3)nn2-c2ccccc2)c1 [Example 22, 1-(1′,4-dimethyl-1-phenyl-1H,1′H-[3,4′-bipyrazol]-5-yl)-3-(5-(methoxymethyl)-2-(trifluoromethoxy)benzyl)urea]	100 to 1000 nM
COCc1ccc(OC(F)(F)F)c(CNC(=O)Nc2c(C)c(OCCF)nn2-c2ccccc2)c1 [Example 60, 1-(3-(2-fluoroethoxy)-4-methyl-1-phenyl-1H-pyrazol-5-yl)-3-(5-(methoxymethyl)-2-(trifluoromethoxy)benzyl)urea]	< 100 nM
COCc1ccc(C(C)(C)C)c(CNC(=O)Nc2c(C)c(-c3cnn(C)c3)nn2-c2ccccc2)c1 [Example 35, 1-(2-(tert-butyl)-5-(methoxymethyl)benzyl)-3-(1′,4-dimethyl-1-phenyl-1H,1′H-[3,4′-bipyrazol]-5-yl)urea]	< 100 nM
COCc1ccc(OC(F)F)c(CNC(=O)Nc2c(C)c(-c3ccc(C)nc3)nn2-c2ccccc2)c1 [Example 21, 1-(2-(difluoromethoxy)-5-(methoxymethyl)benzyl)-3-(4-methyl-3-(6-methylpyridin-3-yl)-1-phenyl-1H-pyrazol-5-yl)urea]	< 100 nM
COCc1ccc(C2CC2)c(CNC(=O)Nc2c(C)c(-c3ccc(C)nc3)nn2-c2ccccc2)c1 [Example 3, 1-(2-cyclopropyl-5-(methoxymethyl)benzyl)-3-(4-methyl-3-(6-methylpyridin-3-yl)-1-phenyl-1H-pyrazol-5-yl)urea]	< 100 nM
Cc1c(OCC2CCN(C)CC2)nn(-c2ccccc2)c1NC(=O)NCc1ccccc1OC(F)(F)F [Example 115, 1-(4-methyl-3-((1-methylpiperidin-4-yl)methoxy)-1-phenyl-1H-pyrazol-5-yl)-3-(2-(trifluoromethoxy)benzyl)urea]	< 100 nM
5-(3-(2-(difluoromethoxy)-5-(methoxymethyl)benzyl)ureido)-N,4-dimethyl-1-phenyl-1H-pyrazole-3-carboxamide [Example 51]	< 100 nM
Cc1c(-c2cnn(C)c2)nn(-c2ccccc2)c1NC(=O)NCc1ccncc1C1CCC1 [Example 37, 1-((3-cyclobutylpyridin-4-yl)methyl)-3-(1′,4-dimethyl-1-phenyl-1H,1′H-[3,4′-bipyrazol]-5-yl)ureaea]	100 to 1000 nM
CNC(=O)c1nn(-c2ccccc2)c(NC(=O)NCc2cc(Br)ccc2OC(F)(F)F)c1C [Example 64, 5-(3-(5-bromo-2-(trifluoromethoxy)benzyl)ureido)-N,4-dimethyl-1-phenyl-1H-pyrazole-3-carboxamide]	< 100 nM
COCc1ccc(OC(F)(F)F)c(CNC(=O)Nc2c(C)c(O[C@H]3C[C@H](N(C)C)C3)nn2-c2ccccc2)c1 [Example 104, 1-(3-((1r,3r)-3-(dimethylamino)cyclobutoxy)-4-methyl-1-phenyl-1H-pyrazol-5-yl)-3-(5-(methoxymethyl)-2-(trifluoromethoxy)benzyl)urea]	< 100 nM
COCc1ccc(C2CCC2)c(CNC(=O)Nc2c(C)c(OC[C@H](O)CO)nn2-c2ccccc2)c1 [Example 125, (R)-1-(2-cyclobutyl-5-(methoxymethyl)benzyl)-3-(3-(2,3-dihydroxypropoxy)-4-methyl-1-phenyl-1H-pyrazol-5-yl)urea]	< 100 nM
COCc1ccc(C2CCC2)c(CNC(=O)Nc2c(C)c(OC[C@H]3COC(C)(C)O3)nn2-c2ccccc2)c1 [Example 124, (S)-1-(2-cyclobutyl-5-(methoxymethyl)benzyl)-3-(3-((2,2-dimethyl-1,3-dioxolan-4-yl)methoxy)-4-methyl-1-phenyl-1H-pyrazol-5-yl)urea]	< 100 nM
O=C(Nc1c2c(nn1-c1ccccc1)CCC2)NC(CCC(F)(F)F)Cc1ccccc1 (stereo not drawn) [Example 49, 1-(2-phenyl-2,4,5,6-tetrahydrocyclopenta[c]pyrazol-3-yl)-3-(5,5,5-trifluoro-1-phenylpentan-2-yl)urea]	100 to 1000 nM
COCc1ccc(OC(F)(F)F)c(CNC(=O)Nc2c(C)c(-c3ccc(OC)nc3)nn2-c2ccccc2)c1 [Example 53, 1-(5-(methoxymethyl)-2-(trifluoromethoxy)benzyl)-3-(3-(6-methoxypyridin-3-yl)-4-methyl-1-phenyl-1H-pyrazol-5-yl)urea]	< 100 nM
COCc1ccc(C(C)C)c(CNC(=O)Nc2c(C)c(-c3cnn(C)c3)nn2-c2ccccc2)c1 [Example 34, 1-(1′,4-dimethyl-1-phenyl-1H,1′H-[3,4′-bipyrazol]-5-yl)-3-(2-isopropyl-5-(methoxymethyl)benzyl)urea]	< 100 nM
COCc1ccc(OC(F)F)c(CNC(=O)Nc2c(C)c(OC3CC4(C3)CN(C)C4)nn2-c2ccccc2)c1 [Example 108, 1-(2-(difluoromethoxy)-5-(methoxymethyl)benzyl)-3-(4-methyl-3-((2-methyl-2-azaspiro[3.3]heptan-6-yl)oxy)-1-phenyl-1H-pyrazol-5-yl)urea]	< 100 nM

The next lines start with the values.

IC50	Molecule
< 100 nM	COCc1ccc(OC(F)(F)F)c(CNC(=O)Nc2c(C)c(OC[C@@H]3COCCN3)nn2-c2ccccc2)c1 [Example 103, (S)-1-(5-(methoxymethyl)-2-(trifluoromethoxy)benzyl)-3-(4-methyl-3-(morpholin-3-ylmethoxy)-1-phenyl-1H-pyrazol-5-yl)urea]
< 100 nM	COCc1ccc(OC(F)(F)F)c(CNC(=O)Nc2c(C)c(O[C@H]3CNC[C@H]3F)nn2-c2ccccc2)c1 [Example 80, 1-(3-(((3S,4R)-4-fluoropyrrolidin-3-yl)oxy)-4-methyl-1-phenyl-1H-pyrazol-5-yl)-3-(5-(methoxymethyl)-2-(trifluoromethoxy)benzyl)urea]
< 100 nM	COCc1ccc(OC(F)F)c(CNC(=O)Nc2c(C)c(OCC3CCNCC3)nn2-c2ccccc2)c1 [Example 105, 1-(2-(difluoromethoxy)-5-(methoxymethyl)benzyl)-3-(4-methyl-1-phenyl-3-(piperidin-4-ylmethoxy)-1H-pyrazol-5-yl)urea]
< 100 nM	CCOc1ccc(COC)cc1CNC(=O)Nc1c(C)c(-c2cnn(C)c2)nn1-c1ccccc1 [Example 17, 1-(1′,4-dimethyl-1-phenyl-1H,1′H-[3,4′-bipyrazol]-5-yl)-3-(2-ethoxy-5-(methoxymethyl)benzyl)urea]
< 100 nM	COCc1ccc(OC(F)(F)F)c(CNC(=O)Nc2c(C)c(O[C@H]3CCNC3)nn2-c2ccccc2)c1 [Example 83, (S)-1-(5-(methoxymethyl)-2-(trifluoromethoxy)benzyl)-3-(4-methyl-1-phenyl-3-(pyrrolidin-3-yloxy)-1H-pyrazol-5-yl)urea]
< 100 nM	COCc1ccc(OC(F)(F)F)c(CNC(=O)Nc2c(C)c(OCC3(F)CCNC3)nn2-c2ccccc2)c1 (stereo not drawn) [Example 73, 1-(3-((3-fluoropyrrolidin-3-yl)methoxy)-4-methyl-1-phenyl-1H-pyrazol-5-yl)-3-(5-(methoxymethyl)-2-(trifluoromethoxy)benzyl)urea]
< 100 nM	COCc1ccc(OC(F)(F)F)c(CNC(=O)Nc2c(C)c(O[C@H]3CN(C)C[C@H]3F)nn2-c2ccccc2)c1 [Example 81, 1-(3-(((3S,4R)-4-fluoro-1-methylpyrrolidin-3-yl)oxy)-4-methyl-1-phenyl-1H-pyrazol-5-yl)-3-(5-(methoxymethyl)-2-(trifluoromethoxy)benzyl)urea]
< 100 nM	COCc1ccc(OC(F)(F)F)c(CNC(=O)Nc2c(C)c(-c3cncc(OC)c3)nn2-c2ccccc2)c1 [Example 54, 1-(5-(methoxymethyl)-2-(trifluoromethoxy)benzyl)-3-(3-(5-methoxypyridin-3-yl)-4-methyl-1-phenyl-1H-pyrazol-5-yl)urea]
< 100 nM	COCc1cc(CNC(=O)Nc2c(C)c(-c3cnn(C)c3)nn2-c2ccccc2)c(C2CCC2)cn1 [Example 36, 1-((5-cyclobutyl-2-(methoxymethyl)pyridin-4-yl)methyl)-3-(1′,4-dimethyl-1-phenyl-1H,1′H-[3,4′-bipyrazol]-5-yl)urea]
< 100 nM	COCc1ccc(OC(F)(F)F)c(CNC(=O)Nc2c(C)c(-c3cnc(OC)nc3)nn2-c2ccccc2)c1 [Example 59, 1-(5-(methoxymethyl)-2-(trifluoromethoxy)benzyl)-3-(3-(2-methoxypyrimidin-5-yl)-4-methyl-1-phenyl-1H-pyrazol-5-yl)urea]
< 100 nM	COCc1cccc(C(Cc2ccccc2)NC(=O)Nc2c(C)c(-c3cnn(C)c3)nn2-c2ccccc2)c1 (stereo not drawn) [Example 129, 1-(1′,4-dimethyl-1-phenyl-1H,1′H-[3,4′-bipyrazol]-5-yl)-3-(1-(3-(methoxymethyl)phenyl)-2-phenylethyl)urea]
< 100 nM	COCc1ccc(OC(F)(F)F)c(CNC(=O)Nc2c(C)c(C3CCNCC3)nn2-c2ccccc2)c1 [Example 66, 1-(5-(methoxymethyl)-2-(trifluoromethoxy)benzyl)-3-(4-methyl-1-phenyl-3-(piperidin-4-yl)-1H-pyrazol-5-yl)urea]
< 100 nM	COCc1ccc(OC(F)(F)F)c(CNC(=O)Nc2c(C)c(OCC3CCNC3)nn2-c2ccccc2)c1 (stereo not drawn) [Example 71]
< 100 nM	COCc1ccc(C2CCC2)c(CNC(=O)Nc2c3c(nn2-c2ccccc2)CS(=O)(=O)C3)c1 [Example 121, 1-(2-cyclobutyl-5-(methoxymethyl)benzyl)-3-(5,5-dioxido-2-phenyl-4,6-dihydro-2H-thieno[3,4-c]pyrazol-3-yl)urea]
